Test results taken from US9630925B2, “HSP90 inhibitor and preparation method and use thereof” (priority 2010, dated 2017).

What was measured:
[1] = system: human malignant melanoma cells (A375); assay: MTT proliferation inhibition, A375
Text: (§6) In this example, the positive control was 17-AAG (purchased from Alexis Biochemicals Company, US); and the applied cell lines of K562, Hela, A375, Mcf-7, etc., were all purchased from ATCC, Manassas, Va., USA.
(§7) (2) Human cervical carcinoma cells (Hela), human malignant melanoma cells (A375), human laryngeal epithelial cancer cells (Hep-2), and human breast cancer cells (MCF-7) in logarithmic growth phase were taken, and regulated into single cell suspensions having a cell concentration of 2×10^5/mL with a DMEM culture medium containing 10% fetal bovine serum (purchased from GIBCO BRL, US). Then the single cell suspensions were seeded into 96 well plates, 100 μL/well. The cells were cultured overnight, making them attach to the wall. […] Quadruplicate wells were set for each of the concentrations, and the experimental groups, the solvent control groups, and the blank groups were set for the experiments. The 96 well plates were placed in an incubator at 37° C., 5% CO2, and incubated for 48 hours.
(§8) (3) With reference to the MTT method established by Mosmann, 20 μL, MTT solution was added to each of the wells and incubation continued for 4 hours. […] The colorimetric measurements were carried out on a microplate reader (with a wavelength of 570 nm, and a reference wavelength of 630 nm), and the absorbances (A value) were determined. The half toxic concentration (IC50) of the drug was calculated.

[2] = system: human breast cancer cells (MCF-7); assay: MTT proliferation inhibition, MCF-7
Text: as §6, §7, §8

[3] = system: human chronic myeloid leukemia cells (K562); assay: MTT proliferation inhibition, K562
Procedure: as §6
Quadruplicate wells were set for each of the concentrations, and the experimental groups, the solvent control groups, and the blank groups were set for the experiments. The 96 well plates were placed in an incubator at 37° C., 5% CO2, and incubated for 48 hours.
(3) With reference to the MTT method established by Mosmann, 20 μL, MTT solution was added to each of the wells and incubation continued for 4 hours. The solution in each well was sucked out and discarded carefully. Then 100 mL DMSO was added to each of the wells, and the mixture shaken for 15 minutes on a shaker in the dark. The colorimetric measurements were carried out on a microplate reader (with a wavelength of 570 nm, and a reference wavelength of 630 nm), and the absorbances (A value) were determined. The half toxic concentration (IC50) of the drug was calculated.

[4] = system: Vero cells; assay: in vitro
Procedure: (§1) The cells were cultured overnight, and the culture solutions were discarded. […] Then the Vero cells were incubated for an additional 48 hours. The ATP levels in the Vero cells and the AK release quantity in the supernatant of the culture solutions were determined using kits from Lonza, US (Vialight HS kit and Toxilight bioassay kit). The maximum non-toxic concentration of the drug on the Vero cells within 48 hours were then assayed. The positive drug 17-AAG was used as control in the experiment (starting from 10 μM, double dilution of 6 concentrations).

[5] = system: human cervical carcinoma cells (Hela); assay: MTT proliferation inhibition, Hela
Text: as §6, §7, §8

[6] = system: human laryngeal epithelial cancer cells (Hep-2); assay: MTT proliferation inhibition, Hep-2
Text: as §6, §7, §8

[7] = system: Herpes Simplex Virus Type I Strain F (HSV-1 F); assay: Plaque reduction assay (PRA), HSV-1; type: cell-based; details: for IC50: Human alphaherpesvirus 1, plaque reduction, Vero, n = 3, read-out: Antiviral activity HSV-1 IC50
Procedure: (§2) In this example, the Vero cell line (ATCC CCL81, purchased from ATCC, US) was used as the normal cell.
(§3) The Vero cells were cultured to a monolayer on 24 well plates. […] The virus solutions were suck out and discarded. […] After observing for 72 hours, they were fixed for 30 minutes with 10% formaldehyde, stained for 30 minutes with 1% crystal violet, rinsed with water, and dried. The plaques were counted with reference to Nitta's method, and the plaque inhibition rate was calculated.
(§4) A curve graph was plotted with the logarithmic value of the drug concentration as the horizontal coordinate, and the plaque inhibition rate as the vertical coordinate.

[8] = system: Herpes Simplex Virus Type 1 Strain F (HSV-1 F); assay: Anti-HSV-1 activity by CPE method; type: cell-based; details: HSV-1, Vero, 48 hours
Text: (§5) In this example, the Vero cell line (ATCC CCL81, purchased from ATCC, US) was used as the normal cell. […] The cytopathic effect (CPE) was then observed under an optical microscope.

[9] = system: Herpes Simplex Virus Type II Strain 333 (HSV-2 333); assay: Plaque reduction assay (PRA), HSV-2; type: cell-based; details: for IC50: Human alphaherpesvirus 2, plaque reduction, Vero, n = 3, read-out: Antiviral activity HSV-2 IC50
Procedure: as §2, §3, §4

[10] = in vitro; details: African green monkey
Procedure: as §1

[11] = system: Herpes Simplex Virus Type II Strain 333 (HSV-2 333); assay: Anti-HSV-2 activity by CPE method; type: cell-based; details: HSV-2, Vero, 48 hours
Text: as §5

[12] = system: Hsp90; details: background statement; cited from earlier work

C=CCNC1=C2C[C@@H](C)C[C@H](OC)[C@H](O)[C@@H](C)/C=C(\C)[C@H](OC(N)=O)[C@@H](OC)/C=C\C=C(/C)C(=O)NC(=CC1=O)C2=O [Compound 17-AAG, 17-allylaminogeldanamycin, reference compound] showed an IC50 ([1]; A375, MTT, 48 hours) of 3.13 ± 0.15 µM, an IC50 ([2]; MCF-7, MTT, 48 hours) of 3.24 ± 0.15 µM and an IC50 ([3]; K562, MTT, 48 hours) of 2.43 ± 0.68 µM. It also gave a maximum non-toxic concentration ([4]; Vero cells, 48 hours) of 0.63 µM, an IC50 ([5]; Hela, MTT, 48 hours) of 5.42 ± 0.18 µM and an IC50 ([6]; Hep-2, MTT, 48 hours) of 2.33 ± 0.3 µM.
With CC(=O)OC(CC(=O)OC1CCC(Nc2cc(-n3nc(C)c4c3CC(C)(C)CC4=O)ccc2C(N)=O)CC1)C[N+](C)(C)C.[Cl-] (stereo not shown) [Xbj-B16-1, 2-(4-(3-acetylcarnitineacyloxy)cyclohexylamino)-4-(1-(3,6,6-trimethyl-4-oxy-4,5,6,7-terahydroindazole))benzamide] the IC50 [7] was 2.96 ± 0.56 µM, the “HSV-1 TI (therapeutic index, TC50/IC50)” value ([7]; TC50/IC50) was 16.14 and the IC50 ([1]; Homo sapiens, A-375, 48 h) was 7.23 ± 1.31 µM. The IC50 ([2]; Homo sapiens, MCF7, 48 h) was 9.53 ± 2.03 µM, the CPE ([8]; 0.39 μM) was “++++ (76%-100% ++++)” and the CPE ([8]; 0.78 μM) was “++++ (76%-100% ++++)”. The CPE ([8]; 1.56 μM) was “++++ (76%-100% ++++)”, the CPE ([8]; 3.13 μM) was “+++ (51%-75% +++)” and the CPE ([8]; 6.25 μM) was “++ (26%-50% ++)”. For the same compound, the IC50 [9] was 3.2 ± 0.33 µM, the “HSV-2 TI (therapeutic index, TC50/IC50)” value ([9]; TC50/IC50) was 14.93 and the IC50 ([3]; Homo sapiens, K562, 48 h) was 8.31 ± 1.78 µM. For the same compound, the CC50 at 48 h [10] was 47.8 ± 3.53 µM, the “Toxity TC0 (the maximum non-toxic concentration)” value ([4]; African green monkey, 48 h) was 12.5 µM and the maximum non-toxic concentration ([4]; African green monkey, 48 h) was 12.5 µM. The CPE ([11]; 0.39 μM) was “++++ (76%-100% ++++)”, the CPE ([11]; 0.78 μM) was “++++ (76%-100% ++++)” and the CPE ([11]; 1.56 μM) was “++++ (76%-100% ++++)”. For the same compound, the CPE ([11]; 3.13 μM) was “+++ (51%-75% +++)”, the CPE ([11]; 6.25 μM) was “+++ (51%-75% +++)” and the CPE ([11]; 12.5 μM) was “+ (0-25% +)”. For the same compound, the IC50 ([5]; Homo sapiens, HeLa, 48 h) was 10.3 ± 2.48 µM and the IC50 ([6]; Homo sapiens, HEp-2, 48 h) was 6.37 ± 2.13 µM.
For CO[C@@H]1[C@@H](OC(N)=O)[C@@H](O)[C@H](Oc2ccc3c(O)c(NC(=O)c4ccc(O)c(CC=C(C)C)c4)c(=O)oc3c2C)OC1(C)C [Novobiocin], the “concentration used as an inhibitor of Hsp90” value [12] is listed as “up to 700 μM”.
In the case of Nc1nc2c(ncn2COCCO)c(=O)[nH]1 [ACV, Acyclovir, reference compound], the IC50 [7] is reported as 4.16 ± 1.02 µM, the IC50 [9] is reported as 3.32 ± 0.44 µM and the CPE ([11]; 0.16 μM) is reported as “++ (26%-50% ++)”. The CPE ([11]; 0.31 μM) was “++ (26%-50% ++)”.
